Source: BindingDB's records for doi:10.3109/14756366.2012.727812 (Shiraz University, 2013)
pIC50, pKi: −log10 of the molar value. Several values for one entry are separate records, joined by “and”; a condition that tells them apart may be missing. Identical values can stand only once.

These molecules were tested against Alpha-glucosidase MAL12 (Saccharomyces cerevisiae (strain ATCC 204508 / S288c), UniProt P53341) (assay: Inhibition Assay). Details: pH 7.
Procedure: In this study, the inhibition assay of yeast enzyme was performed in 100 mM phosphate buffer pH 7.0 at 25°C with minor changes, according to the methods reported previously. [Saijyo et al., J. Oleo. […] After centrifugation, the supernatant was dialyzed against 10 mM potassium phosphate buffer (pH 7.0) containing 0.

Sequence of Alpha-glucosidase MAL12 (P53341 whole entry): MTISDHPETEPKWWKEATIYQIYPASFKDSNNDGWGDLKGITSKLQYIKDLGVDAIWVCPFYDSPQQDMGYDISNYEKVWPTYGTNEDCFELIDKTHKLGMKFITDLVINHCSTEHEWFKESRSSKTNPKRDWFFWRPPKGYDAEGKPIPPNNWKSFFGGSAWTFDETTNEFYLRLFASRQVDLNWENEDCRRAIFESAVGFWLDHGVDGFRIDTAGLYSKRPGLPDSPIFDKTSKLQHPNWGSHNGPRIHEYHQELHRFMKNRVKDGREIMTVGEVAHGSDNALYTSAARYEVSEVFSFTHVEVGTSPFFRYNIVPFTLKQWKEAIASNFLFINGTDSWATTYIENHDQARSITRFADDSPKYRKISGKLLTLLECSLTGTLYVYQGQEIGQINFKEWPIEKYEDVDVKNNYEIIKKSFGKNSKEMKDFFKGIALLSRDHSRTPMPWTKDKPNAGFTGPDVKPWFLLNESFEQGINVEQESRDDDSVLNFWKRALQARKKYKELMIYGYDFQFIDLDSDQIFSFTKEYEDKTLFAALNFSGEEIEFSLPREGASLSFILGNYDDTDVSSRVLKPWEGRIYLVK

pIC50 | pKi | Compound
4.13 | 4.15 and 3.77 | O=c1[nH]c2c(c(=O)[nH]1)C(C(O)C(O)C(O)C(O)CO)c1c([nH]c(=O)[nH]c1=O)N2c1ccc(O)cc1 (stereo not drawn) [α-Gl inhibitor, C1]
4.60 | 4.52 and 3.89 | O=c1[nH]c2c(c(=O)[nH]1)C(C(O)C(O)C(O)C(O)CO)c1c([nH]c(=O)[nH]c1=O)N2c1ccc(Br)cc1 (stereo not drawn) [α-Gl inhibitor, C2]

Compound | pIC50 | pKi
Nc1ccc(S(=O)(=O)c2ccc(N3c4[nH]c(=O)[nH]c(=O)c4C(C(O)C(O)C(O)C(O)CO)c4c3[nH]c(=O)[nH]c4=O)cc2)cc1 (stereo not drawn) [α-Gl inhibitor, C3] | 5.02 | 4.85
